Several values for one entry are separate records, joined by “and”; a condition that tells them apart may be missing. Equal values may be shown once. Entries after “also recorded” stand apart in the source; their conditions may differ.
Columns and labels:
ddN mice = assay: Acute oral toxicity in mice; type: in vivo; settings: acute oral
Method: (§1) That of homochlorcyclyzine used as a standard drug is reported to be 353 mg/kg for mice.

[1] = Acute oral toxicity in mice; type: in vivo; settings: mouse, in vivo, po
Method: as §1

[2] = tested on: anti acetylcholinergic action; assay: Anti cholinergic action
[3] = tested on: histamine-induced asthma attack; assay: Inhibitory action on histamine-induced asthma attack in guinea pigs; type: in vivo, guinea pig; settings: for z1 (statistical value): Mann and Whitney U test
Method: Inhibitory actions on histamine-induced asthma attack: Male guinea pigs, of about 300 g body weight are used. Asthma attack is provoked by an aerosol of 0.2% histamine dihydrochloride solution in physiological saline for 10 minutes. The inhibitory actions are examined by shock grades, No. of collapsed guinea pigs/No. of provoked guinea pigs and survival rate. The tested compounds are orally given 2 hrs. prior to spraying of histamine solution.
A/B: No. of collapsed guinea pigs/ No. of provoked guinea pigs.
Statistical comparisons were carried out with the Mann and Whtineys' U

guinea pig ileum = assay: Schultz-Dale reaction in guinea pig ileum sensitized actively with egg albumin; settings: actively-sensitized guinea pig ileum
Method: Male guinea pigs are actively sensitized and their ileum preparations are treated by Schultz-Dales method (J. Pharmacol. Exp. Ther., 4, 167, 1913). […] These preceeding pharmacological properties of the present compound are due to triazolo [1,5-a]pyridine.

homologous PCA in rats [4] = assay: Homologous PCA in Wistar rats; type: in vivo, rat (Wistar); settings: for Inhibition % of extravasation of blue dye: Wistar, egg albumin, 30 min. before challenge, 72 hrs. after sensitization
Excerpt: (§2) Male wistar or SD rats are passively sensitized by Motas method (Immunology 7, 681, 1964) and challenged by the intravenous injection of wistar or SD rat antiserum to egg albumin or horse serum. The inhibitory action of the present compound on homologous PCA (induced by reaginlike, mast cell sensitizing antibody) is shown in Table 5.

[5] = tested on: guinea pig tracheal chain strips; assay: Anti histaminic action: histamine-induced contraction of guinea pig tracheal chain strips; settings: 4×10^^-5 M; Tyrodes solution
[6] = tested on: BSA induced asthma in guinea pigs; assay: Inhibitory action on BSA-induced (experimentally allergic) asthma attack in passively sensitized guinea pigs; type: in vivo, guinea pig; parameters: key to z1 (statistical value vs non treatment): Mann-Whitney U z statistic, treated vs non-treated; settings: for p (statistical significance vs non treatment) / z1 (statistical value vs non treatment) / p (present compound vs homochlorcyclizine) / z2 (statistical value, present compound vs homochlorcyclizine): severity; for z1 (statistical value vs non treatment) / z2 (statistical value, present compound vs homochlorcyclizine): Mann and Whitney U test
Method: The present compound is studied on asthma attacks induced by the antigen-antibody reaction in guinea pigs. The guinea pigs are sensitized passively by the injection of 0.1 to 0.3 ml /100g body weight of rabbit antiserum to BSA (bovine serum albumin) into the ear vein. Forty six hours after passive sensitization, the guinea pigs are orally given the tested compounds. Two hours after oral administration, the asthma attack is provoked by an aerosol injection (0.1 ml/min.) of 1% BSA solution in physiological saline into the plastic chamber in which the testing guinea pig is placed. The symptoms of the asthma attack are observed for 10 minutes and scored on the following shock indices. The shock indices are examined by the shock grades, No. of collapsed guinea pigs/No. of used animals and survival rate.
The shock grades are as follows:
1 slight stimulation of expiration
2 stimulation of expiration (labored expiration)
3 attack of singultation
4 the strongest attack of collapse and struggle
but recovery from collapse within 5 minutes
5 recovery from collapse within 5 to 10 minutes
6 interruption of expiration to death within 10
*Statistical comparisons were carried out with the Mann and Whitneys' U
z1 : The statistical value between non treatment and each tested
z2 : The statistical value between the present compound and […]

[7] = Acute oral toxicity in rats; settings: rat, in vivo
Method: as §1

[8] = tested on: heterologous PCA in guinea pigs; assay: Heterologous passive cutaneous anaphylaxis (PCA) in guinea pigs; type: in vivo, guinea pig; settings: 25 mg/kg po, 30 min. before challenge; rabbit antiserum to egg albumin
Method: Male guinea pigs are passively sensitized by the intradermal injection of rabbit antiserum to egg albumin and challenged by the intravenous injection of egg albumin 4 hrs. after the sensitization. The test compounds are orally given 30 min. before the challenge.

homologous PCA in rats [9] = assay: Homologous PCA in SD rats; type: in vivo, rat (SD)
Excerpt: as §2

[10] = 2.50 mg/kg p.o. vs homochlorcyclizine (250 mg/kg (so in the source))
[11] = antiserum 0.1 ml/100 g, 0.5 mg/kg p.o.
[12] = antiserum 0.1 ml/100 g, 1.0 mg/kg p.o.
[13] = antiserum 0.1 ml/100 g, 5.0 mg/kg p.o.
[14] = antiserum 0.2 ml/100 g, 5 mg/kg p.o.
[15] = antiserum 0.3 ml/100 g, 5 mg/kg p.o.

c1ccc(C(c2ccccc2)N2CCN(CCCc3nc4ccccn4n3)CC2)cc1 [the present compound, 2-[3-(4-diphenylmethyl-1-piperazinyl)propyl] -s-triazolo[1,5-a]pyridine]
toxicity compared with homochlorcyclizine (ddN mice): lower toxicity than that of homochlorcyclizine
LD50 ([1]; female ddN mice, confidence limit 418-563 mg/kg): 485 mg/kg
LD50 ([1]; male ddN mice, confidence limit 507-768 mg/kg): 625 mg/kg
anti acetylcholinergic action [2]: not found to have anti acetylcholinergic action
A/B: No. of collapsed / No. of provoked guinea pigs ([3]; 0.156 mg/kg p.o.): 10/10
A/B: collapsed guinea pigs, number in parentheses (percentage) ([3]; 0.156 mg/kg p.o.): 100
Survival rate (animals) ([3]; 0.156 mg/kg p.o.): 0/10
Survival rate, number in parentheses (percentage) ([3]; 0.156 mg/kg p.o.): 0
A/B: No. of collapsed / No. of provoked guinea pigs ([3]; 0.313 mg/kg p.o.): 10/10
A/B: collapsed guinea pigs, number in parentheses (percentage) ([3]; 0.313 mg/kg p.o.): 100
Survival rate (animals) ([3]; 0.313 mg/kg p.o.): 10/10
Survival rate, number in parentheses (percentage) ([3]; 0.313 mg/kg p.o.): 100
significance of difference from non treatment 1 ([3]; 0.313 mg/kg p.o.): markedly significant difference
z1 (statistical value) ([3]; 0.313 mg/kg p.o. vs non treatment 1): > 5
A/B: No. of collapsed / No. of provoked guinea pigs ([3]; 0.625 mg/kg p.o.): 9/10
A/B: collapsed guinea pigs, number in parentheses (percentage) ([3]; 0.625 mg/kg p.o.): 90
Survival rate, number in parentheses (percentage) ([3]; 0.625 mg/kg p.o.): 100
significance of difference from non treatment 1 ([3]; 0.625 mg/kg p.o.): markedly significant difference
z1 (statistical value) ([3]; 0.625 mg/kg p.o. vs non treatment 1): > 5
A/B: No. of collapsed / No. of provoked guinea pigs ([3]; 1.25 mg/kg p.o.): 4/10
A/B: collapsed guinea pigs, number in parentheses (percentage) ([3]; 1.25 mg/kg p.o.): 40
Survival rate (animals) ([3]; 1.25 mg/kg p.o.): 10/10
Survival rate, number in parentheses (percentage) ([3]; 1.25 mg/kg p.o.): 100
significance of difference from non treatment 1 ([3]; 1.25 mg/kg p.o.): markedly significant difference
z1 (statistical value) ([3]; 1.25 mg/kg p.o. vs non treatment 1): > 5
A/B: No. of collapsed / No. of provoked guinea pigs ([3]; 2.50 mg/kg p.o.): 1/11
A/B: collapsed guinea pigs, number in parentheses (percentage) ([3]; 2.50 mg/kg p.o.): 9.1
Survival rate (animals) ([3]; 2.50 mg/kg p.o.): 11/11
Survival rate, number in parentheses (percentage) ([3]; 2.50 mg/kg p.o.): 100
significance of difference from non treatment 1 ([3]; 2.50 mg/kg p.o.): markedly significant difference
p (significant difference from homochlorcyclizine) [3, 10]: < 0.02
z2 (statistical value) [3, 10]: 2.332
z1 (statistical value) ([3]; 2.50 mg/kg p.o. vs non treatment 1): > 5
A/B: No. of collapsed / No. of provoked guinea pigs ([3]; 10.0 mg/kg p.o.): 0/6
A/B: collapsed guinea pigs, number in parentheses (percentage) ([3]; 10.0 mg/kg p.o.): 0
Survival rate (animals) ([3]; 10.0 mg/kg p.o.): 6/6
Survival rate, number in parentheses (percentage) ([3]; 10.0 mg/kg p.o.): 100
p (significant difference from non treatment 2) ([3]; 10.0 mg/kg p.o.): < 0.0005
p for z2 (significant difference from non treatment 1 (so in the source)) ([3]; 10.0 mg/kg p.o.): < 0.005
z2 (statistical value) ([3]; 10.0 mg/kg p.o. vs non treatment 1 (so in the source)): 2.844
z1 (statistical value) ([3]; 10.0 mg/kg p.o. vs non treatment 2): 3.321
inhibition of asthma attack compared to non treatment and homochlorcyclizine ([3]; oral, 2 hrs. prior to histamine): markedly and significantly inhibits asthma attack
inhibition of Schultz-Dale reaction (guinea pig ileum): markedly inhibits Schultz-Dale reaction
inhibition of reaginlike, mast cell sensitizing antibody-induced PCA (homologous PCA in rats [4]; Wistar rat, oral): markedly inhibits
Inhibition % of extravasation of blue dye (homologous PCA in rats [4]; 25 mg/kg po): 64.3%
Inhibition % of extravasation of blue dye (homologous PCA in rats [4]; 50 mg/kg po): 88.8%
inhibitory rate on histamine-induced contraction [5]: 124%
severe asthma attack ([6]; 5 mg/kg dose): suppresses completely severe asthma attack
A/B: No. of collapsed / No. of provoked guinea pigs [6, 11]: 3/6
A/B: collapsed guinea pigs, percentage [6, 11]: 50%
Survival rate (animals) [6, 11]: 5/6
Survival rate, percentage [6, 11]: 83.3%
A/B: No. of collapsed / No. of provoked guinea pigs [6, 12]: 4/10
A/B: collapsed guinea pigs, percentage [6, 12]: 40%
Survival rate (animals) [6, 12]: 10/10
Survival rate, percentage [6, 12]: 100%
A/B: No. of collapsed / No. of provoked guinea pigs [6, 13]: 0/6
A/B: collapsed guinea pigs, percentage [6, 13]: 0%
Survival rate (animals) [6, 13]: 6/6
Survival rate, percentage [6, 13]: 100%
A/B: No. of collapsed / No. of provoked guinea pigs [6, 14]: 0/6
A/B: collapsed guinea pigs, percentage [6, 14]: 0%
Survival rate (animals) [6, 14]: 6/6
Survival rate, percentage [6, 14]: 100%
A/B: No. of collapsed / No. of provoked guinea pigs [6, 15]: 0/5
A/B: collapsed guinea pigs, percentage [6, 15]: 0%
Survival rate (animals) [6, 15]: 5/5
Survival rate, percentage [6, 15]: 100%
incidences of asthma attack vs non treated ([6]; more than 0.5 mg/kg dose): inhibits significantly
collapse ([6]; more than oral 5 mg/kg dose): completely inhibits collapse
inhibitory action on asthma attack compared with homochlorcyclizine ([6]; oral): more significant; also recorded: prohibits the asthma attack more significantly than that of homochlorocyclizine
shock death ([6]; oral 1 mg/kg): inhibits shock death
p (statistical significance vs non treatment) [6, 11]: < 0.01
z1 (statistical value vs non treatment) [6, 11]: 2.618
p (statistical significance vs non treatment) [6, 12]: < 0.0001
z1 (statistical value vs non treatment) [6, 12]: 4.032
p (statistical significance vs non treatment) [6, 13]: < 0.001
z1 (statistical value vs non treatment) [6, 13]: 3.686
p (present compound vs homochlorcyclizine) [6, 14]: < 0.04
p (statistical significance vs non treatment) [6, 14]: < 0.0001
z1 (statistical value vs non treatment) [6, 14]: 4.112
z2 (statistical value, present compound vs homochlorcyclizine) [6, 14]: 2.067
p (present compound vs homochlorcyclizine) [6, 15]: < 0.05
p (statistical significance vs non treatment) [6, 15]: < 0.001
z1 (statistical value vs non treatment) [6, 15]: 3.26
z2 (statistical value, present compound vs homochlorcyclizine) [6, 15]: 2.008
LD50 ([7]; male wistar rats, confidence limit 1,05l-1, 790 mg/kg): 1370 mg/kg
LD50 ([7]; po, female wistar rats): < 450 mg/kg
Inhibition % of extravasation of blue dye [8]: 57.8%
inhibition of reaginlike, mast cell sensitizing antibody-induced PCA (homologous PCA in rats [9]; SD rat, oral): markedly inhibits
Inhibition % of extravasation of blue dye (homologous PCA in rats [9]; SD, horse serum, 100 mg/kg po, 3 hrs. before challenge, 48 hrs. after sensitization): 94.8% and 94%

Reference: patent publication US3956328A, “S-triazolo(1,5-a)pyridine derivative” (Kyorin Seiyaku Kabushiki Kaisha, priority 1973, dated 1976)
